# Measured values as given in US4939177A, “Use of avarol for the control of AIDS and ARC” (Merz + Co. GmbH & Co., priority 1986, dated 1990).
# Like-named read-outs stand apart in the source and are kept apart here.
# What was measured:
# [1] = test system: IgM titer; experiment: Serum IgM titer of SRBC-immunized mice; format: in vivo, mouse; conditions: 30 mg/kg i.p.
# Method: (§1) The plaque test of Jerne and Nordin (Science 140: 405-406, 1963) was used with the modification given by Cunningham and Szenberg (Immunolog. 14: 599-601; 1968). Briefly, 8 male NMRI mice per group (20-22 g) were immunized on day 0 by i.p. injection of 5×10^8 SRBC in 0.5 ml saline. Treatment with avarol was done i.p. either from day 0 to day +4 or from day -4 to day 0. One hour after the last drug administration, the animals were killed by a blow on the head and bled. The spleens were removed and a single cell suspension was prepared by teasing the pooled spleens through a 120-μm mesh sieve. After lysing the erythrocytes by 0.15M NH4 Cl, the cells were washed twice in Hank's balanced salt solution containing 29 ml of 7.5% NaHCO3 and 10 ml of 1M HEPES buffer solution per one liter. The cells were resuspended in 2 ml per spleen. Six Cunningham chambers per group were filled with a mixture of 0.5 ml of a suitable dilution of spleen cells (generally 1:100), 0.5 ml of a suspension of SRBC (10^9 /ml) and 125 μl of normal guinea pig complement. After 90-120 min of incubation at 37° C., the number of plaques was counted. Plaques per spleen or per 10^6 spleen cells were calculated.
# The pooled blood of 8 mice was centrifuged to obtain the serum. IgM and IgG titers were measured with the mercaptoethanol method (Hudson, L. and Hay, F. C. Practical Immunology, Blackwell Sci., Oxford; 1983).
# [2] = test system: lymphocyte cultures; experiment: [^3 H]-dThd incorporation in lymphocyte cultures from avarol-pretreated mice; format: cell-based, mouse; conditions: pretreatment of mice; macrophage-containing and macrophage-depleted cultures
# Excerpt: The effect of avarol on the lymphoid system was studied both in vitro and in vivo. […] The stimulatory influence of avarol on humoral immune responses is not accompanied by a change of the antibody-mediated hypersensitivity reaction, as measured by the Arthus reaction. No significant influence of avarol on the cellular immune system in vivo (rats or mice) was found, as taken from studies on delayed-type hypersensitivity reactions to sheep red blood cells and to oxazolone.
# [3] = test system: HTLV-III p24; format: cell-based; conditions: for Expression of p24 (in %): none = 100
# [4] = test system: HTLV-III p15; experiment: HTLV-III p15 expression in H9-HTLV-III cells, immunofluorescence; format: cell-based; conditions: for Expression of p15 (in %): none = 100
# Method: H9-cells (M. Popovic, M. G. Sarngadharan, E. Reed, R. C. Gallo, Science: 224, 1984, 497-500) were treated with Polybren® (hexadimethrinbromide available on the market; 2 μg/ml) for 30 minutes at 37° C., washed free of Polybren and infected with 2×10^8 HTLV-III virus particles (isolated from H9 cell cultures by the method of M. Popovic; see above) per 4×10^5 H9 cells. Some assays which were not treated with drugs were used as positive controls, while different concentrations of the compound to be tested (avarone or avarol and their derivatives) were added to the test samples. The HTLV-III reverse transcriptase activity of these cultures was analyzed in the manner described above.
# The immunofluorescence assays were carried out on methanol:acetone (1:1)-fixed cells with the use of monoclonal antibodies (from the mouse) against HTLV-III p15 (core protein of MW=15,000) and p24 (core protein of MW=24,000). Both of these proteins are marker proteins which indicate the presence of virus particles in the cells. The HTLV-III Infected cells with or without drug treatment were fixed on toxoplasmosis slides. After fixation with methanol-acetone (1:1) for 30 minutes at room temperature, the slides were stored in sealed plastic containers at -20° C. until use. The monoclonal antibodies were added to the cells, incubated at room temperature in a moisture chamber for one hour and washed for two hours with PBS (phospate buffered saline) containing 0.25% Triton X-100. The cells were then treated for one hour with fluorescein (FITC) labeled goat anti-mouse IgG (Capell Labs.) and washed overnight with PBS buffer containing 0.25% Triton X-100. Fifty percent glycerin was added to the slides and the cell fluorescence was determined with a Zeiss fluorescence microscope.
# When the target H9-cells were treated with the HTLV-III isolate and cultivated without the compounds to be tested, the H9-cells were infected and, as established by indirect immunofluorescence assay, there was expression of the p24 and p15 protein. After incubation of the H9-HTLV-III cells with the compounds to be tested, a practically complete protective effect was observed.
# [5] = test system: Interferon gamma production by peripheral human lymphocytes; experiment: Interferon-gamma production by human lymphocytes (buffy coat cells), EIA; format: cell-based
# Method: It is therefore advantageous that an anti-AIDS chemotherapeutic agent is provided with the ability to induce gamma Interferon in T-lymphocytes. […] The experiments were performed in vitro, using peripheral human lymphocytes (buffy coat cells) in culture.
# Buffy coat cells were prepared by centrifugation on Ficoll-Plaque gradient and washed two times. Subsequently the cells were divided and adjusted to a concentration of 5×1,000,000 cells/ml.
# Levels of Interferon were defined by an Enzymeimmunoassay (EIA). Interferon gamma: 96 well flat bottom plates (Greiner, Neurtingen) were coated with a monoclonal antibody recognizing Interferon gamma. 200 μl of the supernatant sample were added per well together with Interferon gamma-peroxidase coupled (50 μl), consisting of the same antibody as used for coating. […] The enzymatic reaction is completed by a preparation containing hydrogen peroxide substrate. The reaction is stopped within 15 minutes by 100 μl of sulfuric acid per well. The amount of Interferon is defined by comparing the extinction of the test sample with a standard curve produced by known values of Interferon gamma.
# [6] = test system: plaque forming cells in the spleen of mice; experiment: Jerne plaque test, plaque forming cells in spleen of SRBC-immunized mice; format: in vivo, mouse; conditions: for Plaque forming cells per 10^6 cells: 30 mg/kg i.p.
# Method: Concerning the functional consequences of the compound onto B-cells in vitro, I found (previous section) that both the IgG and the IgM secretion is stimulated in cultures of human lymphoid cells (unseparated) which are treated with non-cytostatic concentrations of avarol. This finding is supported by the results of the Jerne plaque test.
# as §1
# [7] = test system: normal T-lymphocytes; conditions: cited from earlier work
structure (smiles),measurement,setting,value
"CC1=CCC[C@H]2[C@](C)(Cc3cc(O)ccc3O)[C@@H](C)CC[C@]12C [Avarol, 2-[(1R)-1,2,3,4,4a,7,8,8aα-octahydro-1β,2β,4aβ,5-tetramethyl-1-naphthylmethyl]-1,4-benzenediol]",Titer IgM,"[1]; from 0 to +4 days, untreated 256",256
same,Titer IgM,"[1]; from -4 to 0 days, untreated 512",512
same,"[^3 H]-dThd incorporation rate, in words",[2],higher [^3 H]-dThd incorporation rate
same,Expression of p24 (in %),[3]; 0.1 μg/ml,28%
same,Expression of p24 (in %),[3]; 1 μg/ml,14%
same,Expression of p24 (in %),[3]; 5 μg/ml,14%
same,"expression of HTLV-III protein p24, in words",[3]; H9-HTLV-III cells,significant reduction
same,Expression of p15 (in %),[4]; 0.1 μg/ml,37%
same,Expression of p15 (in %),[4]; 1 μg/ml,12%
same,Expression of p15 (in %),[4]; 5 μg/ml,12%
same,"expression of HTLV-III protein p15, in words",[4]; H9-HTLV-III cells,significant reduction
same,Titer of Interferon-gamma,"[5]; 0.2 μg/ml, 0 hours, untreated 2",4 Units/ml of supernatant
same,Titer of Interferon-gamma,"[5]; 0.2 μg/ml, 24 hours, untreated 5",17 Units/ml of supernatant
same,Titer of Interferon-gamma,"[5]; 0.2 μg/ml, 48 hours, untreated 3",24 Units/ml of supernatant
same,Titer of Interferon-gamma,"[5]; 0.2 μg/ml, 72 hours, untreated 7",26 Units/ml of supernatant
same,Titer of Interferon-gamma,"[5]; 0.2 μg/ml, 96 hours, untreated 4",21 Units/ml of supernatant
same,Titer of Interferon-gamma,"[5]; 0.5 μg/ml, 0 hours, untreated 2",4 Units/ml of supernatant
same,Titer of Interferon-gamma,"[5]; 0.5 μg/ml, 24 hours, untreated 5",23 Units/ml of supernatant
same,Titer of Interferon-gamma,"[5]; 0.5 μg/ml, 48 hours, untreated 3",74 Units/ml of supernatant
same,Titer of Interferon-gamma,"[5]; 0.5 μg/ml, 72 hours, untreated 7",89 Units/ml of supernatant
same,Titer of Interferon-gamma,"[5]; 0.5 μg/ml, 96 hours, untreated 4",118 Units/ml of supernatant
same,Titer of Interferon-gamma,"[5]; 1.0 μg/ml, 0 hours, untreated 2",3 Units/ml of supernatant
same,Titer of Interferon-gamma,"[5]; 1.0 μg/ml, 24 hours, untreated 5",20 Units/ml of supernatant
same,Titer of Interferon-gamma,"[5]; 1.0 μg/ml, 48 hours, untreated 3",52 Units/ml of supernatant
same,Titer of Interferon-gamma,"[5]; 1.0 μg/ml, 72 hours, untreated 7",62 Units/ml of supernatant
same,Titer of Interferon-gamma,"[5]; 1.0 μg/ml, 96 hours, untreated 4",73 Units/ml of supernatant
same,optimal dose for Interferon gamma induction,[5]; in vitro,0.5 µg/mL
same,Plaque forming cells per 10^6 cells,"[6]; from 0 to +4 days, untreated 2,782","3,316"
same,Plaque forming cells per 10^6 cells,"[6]; from -4 to 0 days, untreated 2,259","2,202"
same,higher number of plaque forming cells/spleen,"[6]; 30 mg/kg, day 0 to day +4",28%
same,increase of plaque forming cells/spleen,"[6]; 30 mg/kg, day -4 to day 0",21%
same,concentration inhibiting [^3 H] dThd-incorporation rate by 50%,[7],0.5 to 1.3 µg/mL
